This note sets out measurements from patent US8731655B2, “Compounds containing acyclic N-N bonds for phototherapy” (Mallinckrodt LLC, priority 2009, dated 2014).

A short description of series [1]: Absorption maxima of photosensitizer. It is filed as physicochemical.
For series [2], the system named is human myeloid leukemia U937 cell line. Put plainly: Cell viability upon exposure of tumor cells to photosensitizer and light. The class given is cell-based. The following applies: for cell viability result in words: U937 cells exposed to light in presence of photosensitizer, various concentrations and durations; for percent viability: U937 cells. Here is the method: (§1) Abstract: A class of Type 1 photosensitizer containing fragile —N—N— bonds that produce reactive intermediates upon photoexcitation was prepared and tested in vitro. U937 leukemia cells were incubated with the photosensitizer at various concentrations and irradiated with 325-425 nm light at various durations.
(§2) Cell Viability Measurements: A general procedure is carried out for measuring cell viability upon exposure of tumor cells to a photosensitizer having Formula (FX23) or (FX25) and light. The photosensitizer (FX23) has an absorption maxima (λmax) of 385 nm. The cell viability analysis is carried out using human myeloid leukemia U937 cell line by the standard WST-1 assay. In this procedure, U397 Luekemia cells (0.5×10^6) are plated in standard T-25 cell culture flasks, and are exposed to four controls and a series of test conditions corresponding to a range of photosensitizer concentrations.
(§3) The photosensitizers having formula (FX23) and (FX25) are dissolved in DMSO at an initial concentration of about 8 mM and diluted with water to the final desired value such that amount of DMSO exposed to the cells is below 0.5%. The cells are incubated at 37° C. with various concentrations the photosensitizer for about 30 minutes prior to the exposure of light. […] It should be noted that in the present study, the light source is not optimized with respect to power and wavelength. The viability of cells is assessed after 24 hours following light exposure. The light source is a B-100SP High Intensity Lamp from UVP. Once exposure is complete, cells are processed to determine percent viability using Hank's Balanced Salt Solution (HBSS), Trypan blue stain, and a hemacytometer to count live and dead cells. The number of viable cells is determined and percent viability is determined

Experiment in series [3]: as above
It is filed as cell-based, human. The note with it: human, U937 myeloid leukemia cells; U937 cells, 10.0 μM photosensitizer, no light exposure; read-out: percent viability. Here is the method:
as §1, §2, §3

Broadly, the viability is the share of living cells, or the viability signal relative to a control.

As to `CCOC(=O)NN(C(=O)OCC)c1c2ccccc2cc2ccccc12` [FX23], the “absorption maxima (λmax)” value in series [1] came to 385 nm. For the same compound, the IC50 in series [2] (Homo sapiens, U-937, 20 min, U937 cells exposed to light and the photosensitizer for 20 minutes, read-out: VC50/20 (concentration at which 50% decrease in cell viability is observed)) came out at 130 ± 30 nM. Besides, the “cell viability result in words” value in series [2] is “concentration-dependent and light exposure time-dependent decrease in cell viability”. Moreover, the percent viability in series [2] (0.16 μM photosensitizer, light exposure 5 minutes (325-425 nm lamp), viability 24 h after exposure) stood at 78%; in series [2] (0.16 μM photosensitizer, light exposure 10 minutes), 40%; in series [2] (0.16 μM photosensitizer, light exposure 20 minutes), 40%; in series [2] (0.32 μM photosensitizer, light exposure 5 minutes), 41%; in series [2] (0.32 μM photosensitizer, light exposure 10 minutes), 5%; in series [2] (0.32 μM photosensitizer, light exposure 20 minutes), 5%. Besides, the percent viability in series [2] (0.63 μM photosensitizer, light exposure 5 minutes) amounted to 5%; in series [2] (0.63 μM photosensitizer, light exposure 10 minutes), 5%; in series [2] (0.63 μM photosensitizer, light exposure 20 minutes), 4%.

Take `COc1cc(OC)c(/C=N/Nc2c3ccccc3nc3ccccc23)c(OC)c1` [FX25]: in series [2], the “cell viability result in words” value is “concentration-dependent and light exposure time-dependent decrease in cell viability”. Moreover, the percent viability in series [2] (1.25 μM photosensitizer, light exposure 10 minutes) was determined as 100%; in series [2] (1.25 μM photosensitizer, light exposure 20 minutes), 100%; in series [2] (5.0 μM photosensitizer, light exposure 10 minutes), 65%; in series [2] (5.0 μM photosensitizer, light exposure 20 minutes), 10%; in series [2] (10.0 μM photosensitizer, light exposure 10 minutes), 40%; in series [2] (10.0 μM photosensitizer, light exposure 20 minutes), 4%. Moreover, the viability at 10 μM in series [3] was found to be 60%.
